Experimental data reported in patent publication US5424456A, “N-arylalkylderivatives of 2-aminomethyl-2,3-dihydro-1,4-benzodioxine and the process of preparation thereof” (Vyzkumny Ustav Pro Farmacii A Biochemii s.p., priority 1991, dated 1995).

Tests used:
blood pressure [1] = experiment: Hypotensive activity, conscious monkeys; assay type: in vivo, Macaca mulatta
Description: c) The blood pressure of conscious monkeys (Macaca mulatta) was measured non-invasively on the arm. The average decrease in systolic (SBP) and diastolic (DBP) blood pressure after intravenous and oral administration was expressed in per cents of the starting blood pressure.

calcium channel = biological target: T1, calcium channel (Rattus norvegicus, UniProt P22002); experiment: Calcium channel blocking activity, K+ depolarization-induced contraction of helically cut rat aortic strip; details: Krebs-Henselheit solution, 37° C., cumulative doses, read-out: IC50 (50% decrease of contraction of the aortic strip)
T1 construct: helically cut rat aortic strip; from tissue; host or cells: rat aorta (helically cut strip)
Description: The calcium channel blocking activity of the compounds was tested using a helically cut rat aortic strip in Krebs-Henselheit solution at 37° C., bubbled with a mixture of 95% O2 and 5% CO2. The isometrically registered contractions were induced by K^(+). depolarization. The test compounds were applied in a cumulative doses and the vasodilating activity thereof was expressed in calculated concentration of the test compound, causing 50% decrease of contraction of the aortic strip (IC50).

blood pressure [2] = experiment: Hypotensive activity, pentobarbital anaesthesized rabbits; assay type: in vivo, rabbit
Description: a) The blood pressure of pentobarbital anaesthesized rabbits was registered invasively in arteria femoralis. The average decrease in systolic (SBP) and diastolic (DBP) blood pressure expressed in per cents of the starting blood pressure level after intravenous and oral administration is shown in Tables 3 and 4.

T1 sequence (P22002 whole entry): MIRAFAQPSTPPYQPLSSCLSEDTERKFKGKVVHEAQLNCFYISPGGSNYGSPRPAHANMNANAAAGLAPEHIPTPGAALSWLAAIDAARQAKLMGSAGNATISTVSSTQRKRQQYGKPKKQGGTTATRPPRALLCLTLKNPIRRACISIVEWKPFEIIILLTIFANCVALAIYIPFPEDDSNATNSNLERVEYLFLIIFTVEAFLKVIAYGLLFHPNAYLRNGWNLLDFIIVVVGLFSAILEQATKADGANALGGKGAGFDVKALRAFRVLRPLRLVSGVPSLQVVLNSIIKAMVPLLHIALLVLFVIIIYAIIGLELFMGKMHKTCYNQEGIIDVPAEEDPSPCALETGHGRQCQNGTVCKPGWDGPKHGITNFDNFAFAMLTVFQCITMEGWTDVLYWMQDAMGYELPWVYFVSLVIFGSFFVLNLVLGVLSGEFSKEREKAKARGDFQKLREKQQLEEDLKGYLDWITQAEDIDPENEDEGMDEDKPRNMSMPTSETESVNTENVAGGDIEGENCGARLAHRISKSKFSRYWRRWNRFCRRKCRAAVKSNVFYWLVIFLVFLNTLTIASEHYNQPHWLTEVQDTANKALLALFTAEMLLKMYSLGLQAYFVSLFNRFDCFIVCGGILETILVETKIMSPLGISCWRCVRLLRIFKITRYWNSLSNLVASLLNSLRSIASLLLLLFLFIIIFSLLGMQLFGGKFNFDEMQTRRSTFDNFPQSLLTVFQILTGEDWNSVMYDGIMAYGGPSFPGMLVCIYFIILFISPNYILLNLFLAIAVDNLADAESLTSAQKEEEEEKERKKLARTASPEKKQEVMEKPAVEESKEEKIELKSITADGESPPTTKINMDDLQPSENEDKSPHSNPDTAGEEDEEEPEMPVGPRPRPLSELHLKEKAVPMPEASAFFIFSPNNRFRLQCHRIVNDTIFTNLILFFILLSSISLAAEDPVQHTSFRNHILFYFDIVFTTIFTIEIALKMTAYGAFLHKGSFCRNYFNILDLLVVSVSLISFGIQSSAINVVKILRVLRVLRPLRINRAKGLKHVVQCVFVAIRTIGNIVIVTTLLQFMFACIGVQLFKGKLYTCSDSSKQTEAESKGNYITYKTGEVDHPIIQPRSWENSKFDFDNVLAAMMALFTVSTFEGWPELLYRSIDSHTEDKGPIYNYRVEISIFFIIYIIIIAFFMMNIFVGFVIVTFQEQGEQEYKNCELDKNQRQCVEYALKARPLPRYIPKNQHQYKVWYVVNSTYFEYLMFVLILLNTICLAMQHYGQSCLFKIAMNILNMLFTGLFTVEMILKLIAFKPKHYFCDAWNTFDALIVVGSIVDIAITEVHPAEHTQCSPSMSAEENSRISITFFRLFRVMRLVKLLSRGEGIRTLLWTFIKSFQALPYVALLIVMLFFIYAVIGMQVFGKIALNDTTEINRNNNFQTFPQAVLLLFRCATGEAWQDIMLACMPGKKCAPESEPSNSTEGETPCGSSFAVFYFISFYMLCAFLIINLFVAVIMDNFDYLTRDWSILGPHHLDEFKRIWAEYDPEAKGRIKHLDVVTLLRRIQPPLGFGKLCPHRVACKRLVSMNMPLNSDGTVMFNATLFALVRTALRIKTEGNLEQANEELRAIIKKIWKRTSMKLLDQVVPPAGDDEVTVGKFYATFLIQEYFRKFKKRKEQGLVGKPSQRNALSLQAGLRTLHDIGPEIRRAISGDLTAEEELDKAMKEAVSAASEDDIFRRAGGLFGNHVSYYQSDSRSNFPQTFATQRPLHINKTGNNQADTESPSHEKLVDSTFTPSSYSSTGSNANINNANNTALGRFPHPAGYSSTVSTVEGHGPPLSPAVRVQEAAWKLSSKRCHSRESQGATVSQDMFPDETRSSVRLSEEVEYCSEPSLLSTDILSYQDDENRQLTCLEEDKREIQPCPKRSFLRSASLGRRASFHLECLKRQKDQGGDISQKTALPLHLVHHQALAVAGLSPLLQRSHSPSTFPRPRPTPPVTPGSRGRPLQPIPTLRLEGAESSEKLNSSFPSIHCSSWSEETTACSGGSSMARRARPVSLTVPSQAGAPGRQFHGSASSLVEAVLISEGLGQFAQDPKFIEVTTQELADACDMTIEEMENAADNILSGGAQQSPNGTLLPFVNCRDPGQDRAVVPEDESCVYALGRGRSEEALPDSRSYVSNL
T1 sequence (P54290 25-1091 partner): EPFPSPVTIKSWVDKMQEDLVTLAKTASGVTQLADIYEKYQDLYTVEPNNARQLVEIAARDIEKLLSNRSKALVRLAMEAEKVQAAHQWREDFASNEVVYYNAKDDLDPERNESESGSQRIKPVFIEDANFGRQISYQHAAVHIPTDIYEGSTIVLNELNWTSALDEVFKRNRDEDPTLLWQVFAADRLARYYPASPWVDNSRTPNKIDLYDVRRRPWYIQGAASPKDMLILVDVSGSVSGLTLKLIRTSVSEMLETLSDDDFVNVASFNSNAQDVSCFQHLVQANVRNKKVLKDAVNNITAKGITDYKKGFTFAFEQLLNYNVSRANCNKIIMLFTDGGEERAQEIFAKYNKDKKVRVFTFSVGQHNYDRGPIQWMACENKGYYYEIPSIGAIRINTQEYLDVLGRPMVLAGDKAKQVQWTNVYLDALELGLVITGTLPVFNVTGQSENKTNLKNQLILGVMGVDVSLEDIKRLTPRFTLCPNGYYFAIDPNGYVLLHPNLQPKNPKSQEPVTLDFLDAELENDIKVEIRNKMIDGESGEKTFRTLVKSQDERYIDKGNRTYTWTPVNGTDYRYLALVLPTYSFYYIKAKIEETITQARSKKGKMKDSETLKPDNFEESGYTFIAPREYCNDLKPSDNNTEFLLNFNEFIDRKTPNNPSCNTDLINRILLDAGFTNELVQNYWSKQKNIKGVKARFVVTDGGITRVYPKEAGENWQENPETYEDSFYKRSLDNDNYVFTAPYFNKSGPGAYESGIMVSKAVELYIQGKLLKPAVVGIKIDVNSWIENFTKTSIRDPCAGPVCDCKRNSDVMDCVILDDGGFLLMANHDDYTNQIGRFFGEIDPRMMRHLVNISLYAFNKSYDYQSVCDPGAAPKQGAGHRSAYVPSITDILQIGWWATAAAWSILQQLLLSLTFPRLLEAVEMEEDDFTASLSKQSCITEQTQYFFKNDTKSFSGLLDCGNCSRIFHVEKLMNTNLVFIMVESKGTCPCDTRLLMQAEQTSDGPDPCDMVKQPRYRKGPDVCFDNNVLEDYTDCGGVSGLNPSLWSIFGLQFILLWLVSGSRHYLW

IC50 (calcium channel): 18 µM
Structure (SMILES): COc1ccc(C(C#N)(CCCNCC2COc3ccccc3O2)C(C)C)cc1OC (racemic) [VUFB 17951, 5-(2,3-Dihydro-1,4-benzodioxin-2-ylmethylamino)-2-(3,4-dimethoxyphenyl)-2-isopropyl valeronitrile]
decrease in diastolic blood pressure (DBP) (blood pressure [1]; i.v., 0.25 mg/kg, 1 min): -49 per cents
decrease in systolic blood pressure (SBP) (blood pressure [1]; i.v., 0.25 mg/kg, 1 min): -37 per cents
decrease in diastolic blood pressure (DBP) (blood pressure [1]; i.v., 0.25 mg/kg, 5 min): -50 per cents
decrease in systolic blood pressure (SBP) (blood pressure [1]; i.v., 0.25 mg/kg, 5 min): -45 per cents
decrease in diastolic blood pressure (DBP) (blood pressure [1]; i.v., 0.25 mg/kg, 30 min): -31 per cents
decrease in systolic blood pressure (SBP) (blood pressure [1]; i.v., 0.25 mg/kg, 30 min): -28 per cents
decrease in diastolic blood pressure (DBP) (blood pressure [1]; i.v., 0.25 mg/kg, 60 min): -17 per cents
decrease in systolic blood pressure (SBP) (blood pressure [1]; i.v., 0.25 mg/kg, 60 min): -11 per cents
decrease in diastolic blood pressure (DBP) (blood pressure [1]; i.v., 0.25 mg/kg, 180 min): -18 per cents
decrease in systolic blood pressure (SBP) (blood pressure [1]; i.v., 0.25 mg/kg, 180 min): -8 per cents
decrease in diastolic blood pressure (DBP) (blood pressure [1]; i.v., 1.0 mg/kg, 1 min): -58 per cents
decrease in systolic blood pressure (SBP) (blood pressure [1]; i.v., 1.0 mg/kg, 1 min): -50 per cents
decrease in diastolic blood pressure (DBP) (blood pressure [1]; i.v., 1.0 mg/kg, 5 min): -60 per cents
decrease in systolic blood pressure (SBP) (blood pressure [1]; i.v., 1.0 mg/kg, 5 min): -53 per cents
decrease in diastolic blood pressure (DBP) (blood pressure [1]; i.v., 1.0 mg/kg, 30 min): -46 per cents
decrease in systolic blood pressure (SBP) (blood pressure [1]; i.v., 1.0 mg/kg, 30 min): -39 per cents
decrease in diastolic blood pressure (DBP) (blood pressure [1]; i.v., 1.0 mg/kg, 60 min): -30 per cents
decrease in systolic blood pressure (SBP) (blood pressure [1]; i.v., 1.0 mg/kg, 60 min): -29 per cents
decrease in diastolic blood pressure (DBP) (blood pressure [1]; i.v., 1.0 mg/kg, 180 min): -23 per cents
decrease in systolic blood pressure (SBP) (blood pressure [1]; i.v., 1.0 mg/kg, 180 min): -19 per cents
decrease in diastolic blood pressure (DBP) (blood pressure [1]; p.o., 10.0 mg/kg, 5-6 hours): -29 per cents
decrease in systolic blood pressure (SBP) (blood pressure [1]; p.o., 10.0 mg/kg, 5-6 hours): -23 per cents
decrease in diastolic blood pressure (DBP) (blood pressure [1]; p.o., 10.0 mg/kg, 0.5 hours): -30 per cents
decrease in systolic blood pressure (SBP) (blood pressure [1]; p.o., 10.0 mg/kg, 0.5 hours): -26 per cents
decrease in diastolic blood pressure (DBP) (blood pressure [1]; p.o., 10.0 mg/kg, 1 hours): -27 per cents
decrease in systolic blood pressure (SBP) (blood pressure [1]; p.o., 10.0 mg/kg, 1 hours): -24 per cents
decrease in diastolic blood pressure (DBP) (blood pressure [1]; p.o., 10.0 mg/kg, 3 hours): -26 per cents
decrease in systolic blood pressure (SBP) (blood pressure [1]; p.o., 10.0 mg/kg, 3 hours): -21 per cents
decrease in diastolic blood pressure (DBP) (blood pressure [1]; p.o., 10.0 mg/kg, 24 hours): -11 per cents
decrease in systolic blood pressure (SBP) (blood pressure [1]; p.o., 10.0 mg/kg, 24 hours): -9 per cents
decrease in diastolic blood pressure (DBP) (blood pressure [2]; i.v., 0.2 mg/kg, 1 min): -36 per cents
decrease in systolic blood pressure (SBP) (blood pressure [2]; i.v., 0.2 mg/kg, 1 min): -28 per cents
decrease in diastolic blood pressure (DBP) (blood pressure [2]; i.v., 0.2 mg/kg, 5 min): -23 per cents
decrease in systolic blood pressure (SBP) (blood pressure [2]; i.v., 0.2 mg/kg, 5 min): -24 per cents
decrease in diastolic blood pressure (DBP) (blood pressure [2]; i.v., 0.2 mg/kg, 30 min): -24 per cents
decrease in systolic blood pressure (SBP) (blood pressure [2]; i.v., 0.2 mg/kg, 30 min): -25 per cents
decrease in diastolic blood pressure (DBP) (blood pressure [2]; i.v., 0.2 mg/kg, 60 min): -16 per cents
decrease in systolic blood pressure (SBP) (blood pressure [2]; i.v., 0.2 mg/kg, 60 min): -18 per cents
decrease in diastolic blood pressure (DBP) (blood pressure [2]; i.v., 0.2 mg/kg, 180 min): -17 per cents
decrease in systolic blood pressure (SBP) (blood pressure [2]; i.v., 0.2 mg/kg, 180 min): -13 per cents
decrease in diastolic blood pressure (DBP) (blood pressure [2]; i.v., 1.0 mg/kg, 1 min): -56 per cents
decrease in systolic blood pressure (SBP) (blood pressure [2]; i.v., 1.0 mg/kg, 1 min): -47 per cents
decrease in diastolic blood pressure (DBP) (blood pressure [2]; i.v., 1.0 mg/kg, 5 min): -36 per cents
decrease in systolic blood pressure (SBP) (blood pressure [2]; i.v., 1.0 mg/kg, 5 min): -39 per cents
decrease in diastolic blood pressure (DBP) (blood pressure [2]; i.v., 1.0 mg/kg, 30 min): -30 per cents
decrease in systolic blood pressure (SBP) (blood pressure [2]; i.v., 1.0 mg/kg, 30 min): -35 per cents
decrease in diastolic blood pressure (DBP) (blood pressure [2]; i.v., 1.0 mg/kg, 60 min): -33 per cents
decrease in systolic blood pressure (SBP) (blood pressure [2]; i.v., 1.0 mg/kg, 60 min): -35 per cents
decrease in diastolic blood pressure (DBP) (blood pressure [2]; i.v., 1.0 mg/kg, 180 min): -24 per cents
decrease in systolic blood pressure (SBP) (blood pressure [2]; i.v., 1.0 mg/kg, 180 min): -17 per cents
decrease in diastolic blood pressure (DBP) (blood pressure [2]; p.o., 5.0 mg/kg, value 1 of 5 (heads 30/60/120/180 min)): -6 per cents
